Assays:
CD4 T cells = experiment: Proliferation assay of CD4 and CD8 T cells from FR74-immunized mice; type: cell-based; settings: but not CD8 T cells, from FR74-immunized FVB mice, FIG. 3A
Description: FIG. 3A is a plotting the stimulation indices from a proliferation assay in which CD4 and CD8 T cells from FR74-immunized mice were tested for response to non-specific stimulation (PHA), FR74 polypeptide, or an irrelevant polypeptide (Irrel pep). The stimulation index is the ratio of the thymidine incorporation in the sample with antigen and the controls ample. FIG. 3B is a graph plotting results of an IFN-γELlspot (enzyme-linked immunosorbent spot) analysis of FR74-specific T cell lines stimulated in vitro with dendritic cells (DC) pulsed with either FR74 polypeptide, FRα-overexpressing tumor cell lysate (MMC lysate), or an irrelevant polypeptide antigen (Irrel pep). Each bar is the mean (±s.e.m.) of 3 replicates.
The FR74 polypeptide can activate CD4 T cells in FVB and B6 mice, and it is naturally processed.

FR74-specific T cells = experiment: IFN-γ ELIspot of T cell cultures generated ex vivo with polypeptide-pulsed DC; type: cell-based, FVB/N mice
Description: FIG. 4 is a graph plotting the results an IFN-γ ELIspot analyses of T cell cultures incubated with the indicated polypeptides. Epitope nesting greatly augments the numbers of antigen-specific T cells. T cells were tested in ELIspot against native FR74 polypeptide at various concentrations. Each data point is the mean of 3 determinations.
FIG. 6. FR74-specific T cells generated with modified polypeptides recognized tumor lysates. […] Each bar is the mean (±s.e.m.) of 3 replicates.
FIG. 7. […] The T cells were generated at varying concentrations of polypeptides (x-axis). Each point is the mean (±s.e.m.) of 3 replicates.
In terms of proliferation, only the dual modified polypeptide was able to generate T cells that were able to proliferate at 10^−9 g/mL (FIG. 5).
In order to determine whether furin cleavage is required, two methods are used: furin insensitive linkers and furin inhibitors. Blockade of enhanced ex vivo expansion mediated by the DC3 peptide using these two methods is powerful evidence, outside of a furin knockout mouse, that furin is required for the actions of DC3. Although it has already been shown that DC3 must be linked to antigen, as a control T cells are expanded using free FR74 mixed with free DC3. To test the role of furin with furin-insensitive linkers, RARR (SEQ ID NO:4) is replaced with VRVV (SEQ ID NO:41) with the polypeptides FR74.1, FR74.3, and FR74.8 as shown in FIG. 17. In parallel with these cultures, cultures are included in which inhibitors are included. The stoichiometric peptidyl inhibitor decanoyl-Arg-Val-Lys-Arg-CH2CL (SEQ ID NO:42) and α1-antitrypsin Portland, which are the two most commonly used inhibitors, are employed. […] Cultures are examined over a range of concentrations of inhibitors and assayed as described with ELIspot and proliferation assays. To generate Th cells, CD4^+ T cells are purified by incubation of splenocytes with anti-CD4^+ MACS microbeads (Miltenyi, Auburn, Calif.) for 20 minutes at 4° C., followed by positive selection of CD4^+ T cells using an AutoMACS automatic magnetic cell sorter according to the manufacturer's specifications. Th cell lines are established with bone marrow derived DC at a concentration of 5×10^4 T cells/mL in 24-well tissue culture-treated plates in complete medium on day 0. To derive the dendritic cells (DCs), bone marrow is harvested from the long bones of FVB/N mice and seeded in 6-well plates (3×10^6/well) in complete media with murine GM-CSF (10 ng/mL) and IL-4 (1 ng/mL). Media and cytokines are replaced after 3 days. On day 5, CPG is added to the cultures at 1 μg/mL, and the cells are ready for T cell induction on day 6. The tissue culture-generated DC are pulsed with 10 μg/mL FR74 peptide or its modifications and 10 μg/mL B7DC-crosslinking antibody at 37° C. for 4 hours. In these experiments, constant mass is maintained. Next, the peptide-loaded DC are washed with media, and the CD4+ T cells are added, and on days 8 and 10, IL-2 (50 U/mL) is added. On day 15, cells are assayed. For the ELIspot analysis, anti-IFN-γ (Pharmingen) antibody is added to a 96-well nitrocellulose-backed plate (NC-plate, Millipore) at 50 μL/well at a concentration of 10 μg/mL in PBS and incubated overnight at 4° C. The day of analysis, the NC-plate is washed with PBS and blocked for 1-2 hours at 37° C. with PBS/2%BSA. After blocking, the plate are again washed. The Th cells are transferred to the antibody-coated plates. Syngeneic naïve CD4 T cells alone without peptide antigen are used as the negative control. Th cells are seeded at 5×10^4 cells/well with a range of native (i.e., FR74) peptide, irrelevant peptide, FRαMMC tumor lysate, irrelevant tumor lysate, media or concanavalin A. Irradiated syngeneic splenocytes are added at 1 ×10^5 cells/well as antigen-presenting cells. The plate is incubated at 37° C. for 24 hours. The plate are washed with PBS/0.05% Tween-20, and 100 μL/well biotinylated anti-IFN-γ(5 μg/mL, Pharmingen) antibody are added to each well. […]

[1] = Immunogenicity of FR74 used as a vaccine with adjuvant; type: in vivo; settings: with complete Freund's adjuvant (CFA), CpG, or GM-CSF
Text: A native helper epitope designated FR74 was a peptide derived from the folate receptor alpha (FRα) (FIG. 2). FRα (also referred to as folate binding protein) is a glycophosphatidyl-anchored membrane glycoprotein that mediates cellular uptake of folate. This polypeptide is over-expressed on many cancers at levels of up to 80-90-fold relative to the levels observed on normal tissues. FRα is an antigen that can be used across strains, which allows one to test various strategies amongst many different I-A and I-E backgrounds. […] FR74 was modified at the amino-terminus end with an Ii-key and at the carboxy terminus with a DC3 amino acid motif (FIG. 2). To reduce enzymatic degradation in cell culture, the amino terminus of FR74 was acetylated to make FR74.1. FR74.2 is FR74 conjugated to Ii-key. It is attached with a flexible, noncleavable linker FR74.3 is FR74 conjugated to a DC3 polypeptide using a furin sensitive linker to permit cleavage. Furin is an endopeptidase that normally proteolytically activates a large number of proproteins in the cell, and it is predominantly localized to the […] (Thomas, G., Nat. Rev. Mol. Cell Biol., 3(10):753-66 (2002)). FR74.4 is a dual conjugated polypeptide. All modified peptides were acetylated at the amino terminus to prevent degradation.

furin = furin (Homo sapiens, UniProt P09958); settings: cited from earlier work
Th cells = experiment: Cytokine secretion and Th subsets of T cell cultures under varied culture conditions; type: cell-based
Description: FIG. 19. […] Cytokines were measured following stimulation of cells with splenocytes pulsed with either no antigen (open bars) or native FR74 polypeptide. To avoid contamination of cell culture supernatants with splenocyte-derived cytokines, the T cells were purified from the splenocytes prior to incubation to measure cytokines Each bar is the mean (±s.e.m.) of duplicate samples. Results are representative of 2 experiments.
FIG. 20. Manipulation of culture conditions can reduce levels of IL-5 and IL-10 secreting Th cells. Shown are the concentrations of IL-5 and IL-10 within T-cell culture media following simulation of Th cells with or without peptide antigen. Each bar is the mean (±s.e.m.) of duplicate samples.
FIG. 25. Manipulation of culture conditions can reduce levels of IL-5 secreting T cells. Shown are the concentrations of IL-5 within T cell culture media following stimulation of Th cells with or without polypeptide antigen. Each bar is the mean (±s.e.m.) of duplicate samples.
FIG. 26. […] Shown are the concentrations of IL-17 within T cell culture media following simulations of Th cells with or without polypeptide antigen. Each bar is the mean (±s.e.m.) of duplicate samples.
Another item is that Th subset skewing may occur which could cloud interpretations of the polypeptide modifications. […]

furin, sequence (P09958 108-794, species assumed): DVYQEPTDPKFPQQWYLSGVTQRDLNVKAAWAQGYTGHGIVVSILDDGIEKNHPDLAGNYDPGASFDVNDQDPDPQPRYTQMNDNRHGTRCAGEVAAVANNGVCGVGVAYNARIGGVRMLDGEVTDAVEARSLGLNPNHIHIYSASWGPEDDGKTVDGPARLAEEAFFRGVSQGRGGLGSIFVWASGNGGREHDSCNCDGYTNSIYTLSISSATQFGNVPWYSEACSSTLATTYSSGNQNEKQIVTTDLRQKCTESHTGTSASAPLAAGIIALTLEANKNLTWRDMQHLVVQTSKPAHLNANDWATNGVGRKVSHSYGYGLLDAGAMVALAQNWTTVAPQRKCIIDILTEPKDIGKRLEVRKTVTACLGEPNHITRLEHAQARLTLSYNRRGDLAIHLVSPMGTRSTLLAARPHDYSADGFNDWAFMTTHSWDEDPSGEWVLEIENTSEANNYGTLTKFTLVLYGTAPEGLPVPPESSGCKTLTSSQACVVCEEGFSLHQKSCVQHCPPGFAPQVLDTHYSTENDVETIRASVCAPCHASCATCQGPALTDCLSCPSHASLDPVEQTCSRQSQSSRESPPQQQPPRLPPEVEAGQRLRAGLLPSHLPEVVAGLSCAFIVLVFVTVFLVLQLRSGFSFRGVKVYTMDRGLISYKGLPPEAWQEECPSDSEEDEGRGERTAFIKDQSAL

KDISYLYRFNWNHCG [FR74]
proliferation in response to the FR74 polypeptide (stimulation index) (CD4 T cells): increased proliferation | recognition of FRα+ tumor lysates (MMC) pulsed onto DC by FR74-specific T cell lines (FR74-specific T cells; IFN-γ ELIspot, FIG. 3B): recognize FRα^+ tumor lysates | immunogenicity when used to generate T cell lines (FR74-specific T cells; using activated DC): relatively non-immunogenic | immunogenicity as a vaccine [1]: highly immunogenic

decanoyl-Arg-Val-Lys-Arg-CH2CL
selectivity for furin (furin): not selective

α1-antitrypsin
selectivity for furin (furin): highly selective for furin | Ki (furin; furin): 600 pM

B1: IFN-γ: cytokine included in T cell culture (protein, UniProt P01579 24-161, looked up)
Interferon gamma: QDPYVKEAENLKKYFNAGHSDVADNGTLFLGILKNWKEESDRKIMQSQIVSFYFKLFKNFKDDQSIQKSVETIKEDMNVKFFNSNKKKRDDFEKLTNYSVTDLNVQRKAIHELIQVMAELSPAAKTGKRKRSQMLFRG
generation of IL-17-secreting Th cells (Th cells; FIG. 26): blocks generation of IL-17-secreting Th cells | Th2 effectors (IL-5) in FR74.4 cultures (Th cells; cells incubated with FR74.4 with DC and IL-2, FIG. 25): completely blocked
